# Tests used:
# [1] = Toxicity in iv dosed ICR mouse assessed as lethality; conditions: in vivo
# in vivo = conditions: ICR, mouse, iv
SMILES,LD50 [1],selectivity ratio (in vivo)
CN1CCC[C@H]1c1cccnc1.O=C(O)C(O)C(O)C(=O)O.O=C(O)C(O)C(O)C(=O)O,0.38 mg/kg,7.24
CN1CCC[C@@H]1c1cccnc1.O=C(O)C(O)C(O)C(=O)O.O=C(O)C(O)C(O)C(=O)O,2.75 mg/kg,
